According to US20160199491A1, “Compounds compositions and methods including thermally labile moieties” (Biosearch Technologies, Inc., priority 2014, published 2016):

Assay: Deprotection of a Boc-protected PCR primer at 94° C. in water, PCR buffer or TEAA, tracked by reverse-phase HPLC and mass spec
Assay type: physicochemical
Method: The RNaseP forward primer 19-mer [AGATTTGGACCTGCGAGCG](SEQ ID NO: 1) was synthesized on Boc-dG CPG (1 μmol) with Boc dA, dC, and dG amidites. The fully deprotected mass for this primer is 5868 g/mol and the expected mass for Boc protection is […] [15 Boc residues.100 amu/Boc=1500 added]. Deprotection of side chain protecting groups was performed with 25% 2-methoxyethylamine in methanol (1 mL) for 3 hrs at room temp, remove CPG and evaporate to dryness, re-dissolve in DI water (1 mL). The DMT was […] because the Boc group can be used as a hydrophobic handle. The product was desalted with 20-50 micron polystyrene beads packed in a 1 mL cartridge and eluted in 20% ACN/H2O.
The desalted Boc-primer was aliquoted into three microfuge tubes of 100 uL each. The samples were dried down and brought up in 1 mL of house DI water. Only water was added to the first tube. To the second tube 1 mL of PCR buffer pH 8.5, 1× with MgCl2, was added to a final concentration of 6 mM (standard PCR concentrations). To the third tube TEAA was added to give a final concentration of 0.025 N. Each of the three samples was aliquoted into ten 200 uL thin-walled PCR tubes for a total of 30 tubes. All primer preparation was done at room temperature.
An ABI 9700 Thermocycler was preheated to 94° C. Each sample was placed into the heat block and removed at the time point and placed on dry ice to stop the reaction. As a negative control, the T=0 sample was not heated and placed directly in ice at the beginning of the experiment. The samples were allowed to thaw at room temperature and transferred to a 96-well plate for HPLC and mass spectroscopy analysis.
For each time point, reverse-phase and mass spec data were acquired to track the removal of the Boc protecting group. The Boc protected primer is not a single species but rather a collection at various stages of protection.

Boc-primer: RNaseP forward primer 19-mer [AGATTTGGACCTGCGAGCG] (SEQ ID NO: 1) synthesized with Boc dA, dC, and dG amidites (listed as DNA, chemistry not fully specified)
deprotection after 10 minutes under normal PCR buffering (10 minutes, PCR buffer pH 8.5, 1× with MgCl2 6 mM): deprotected
Boc groups after 10 minutes in TEAA (10 minutes, TEAA 0.025 N): some remained
Boc groups after 10 minutes (10 minutes, samples in water, PCR buffer pH 8.5 with MgCl2 6 mM, TEAA 0.025 N): almost all of the Boc groups were gone
Boc groups after 15 minutes in TEAA (15 minutes, TEAA 0.025 N): all were removed
